This note sets out measurements from patent US12215099B2, “Quinolinone and benzoxazine derivatives as muscarinic M1 and/or M4 receptor agonists” (Nxera Pharma UK Limited, priority 2018, dated 2025).

Each structure is given as a SMILES string.

What all share (type): cell-based
The target in experiment [1] is T1, human muscarinic M1 receptor (Homo sapiens, UniProt P11229).
T1 sequence (P11229 1-460): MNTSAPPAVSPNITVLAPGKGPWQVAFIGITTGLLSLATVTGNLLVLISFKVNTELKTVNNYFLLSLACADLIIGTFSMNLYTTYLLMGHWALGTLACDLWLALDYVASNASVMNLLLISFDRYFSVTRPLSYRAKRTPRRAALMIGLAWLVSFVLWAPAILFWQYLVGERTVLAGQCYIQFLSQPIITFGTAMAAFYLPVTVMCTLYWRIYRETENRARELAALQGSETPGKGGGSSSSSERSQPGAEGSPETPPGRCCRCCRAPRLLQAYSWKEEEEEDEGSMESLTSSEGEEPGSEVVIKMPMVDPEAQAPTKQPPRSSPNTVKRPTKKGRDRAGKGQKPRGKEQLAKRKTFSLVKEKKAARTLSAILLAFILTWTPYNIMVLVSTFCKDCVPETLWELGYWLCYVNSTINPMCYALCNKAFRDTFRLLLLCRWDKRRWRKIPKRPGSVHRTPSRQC
Briefly: Alphascreen Surefire phospho-ERK1/2 functional assay, M1. As to conditions: for EC50: CHO cells stably expressing human M1, agonist 5 min, 37° C., read-out: pEC50 M1 (converted); for Emax: CHO, read-out: % Emax cf. ACh, M1. The protocol: (§1) ERK1/2 phosphorylation is a downstream consequence of both Gq/11 and Gi/o protein coupled receptor activation, making it highly suitable for the assessment of M1, M3 (Gq/11 coupled) and M2, M4 receptors (Gi/o coupled), rather than using different assay formats for different receptor subtypes. CHO cells stably expressing the human muscarinic M1, M2, M3 or M4 receptor were plated (25K/well) onto 96-well tissue culture plates in MEM-alpha+10% dialysed FBS. Once adhered, cells were serum-starved overnight. Agonist stimulation was performed by the addition of 5 μL agonist to the cells for 5 min (37° C.). Media was removed and 50 μL of lysis buffer added. After 15 min, a 4 μL sample was transferred to 384-well plate and 7 μL of detection mixture added. Plates were incubated for 2 h with gentle agitation in the dark and then read on a PHERAstar plate reader.
(§2) pEC50 and Emax figures were calculated from the resulting data for each receptor subtype.
(Bead proximity is the source of the signal in Alpha formats.)

Experiment [2] deals with T2, human muscarinic M2 receptor (Homo sapiens, UniProt P08172).
T2 sequence (P08172 1-466): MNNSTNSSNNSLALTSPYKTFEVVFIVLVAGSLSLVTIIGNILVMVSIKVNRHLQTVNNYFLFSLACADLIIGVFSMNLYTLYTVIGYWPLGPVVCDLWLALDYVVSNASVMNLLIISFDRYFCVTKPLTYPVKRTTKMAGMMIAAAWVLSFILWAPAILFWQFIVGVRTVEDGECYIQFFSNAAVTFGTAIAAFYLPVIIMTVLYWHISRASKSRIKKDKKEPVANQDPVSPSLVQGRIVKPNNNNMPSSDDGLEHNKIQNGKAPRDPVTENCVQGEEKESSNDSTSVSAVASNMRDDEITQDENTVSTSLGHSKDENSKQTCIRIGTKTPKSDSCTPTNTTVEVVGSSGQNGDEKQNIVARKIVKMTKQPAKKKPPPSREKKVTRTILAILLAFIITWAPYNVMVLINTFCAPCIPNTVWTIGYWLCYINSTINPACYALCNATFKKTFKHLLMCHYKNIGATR
Briefly: Alphascreen Surefire phospho-ERK1/2 functional assay, M2. The following applies: for EC50: CHO cells stably expressing human M2, agonist 5 min, 37° C., read-out: pEC50 M2 (converted); for Emax: CHO, read-out: % Emax cf. ACh, M2. The protocol:
as §1, §2

The target in experiment [3] is T3, human muscarinic M3 receptor (Homo sapiens, UniProt P20309).
T3 construct: expressed in transfected cells
T3 sequence (P20309 whole entry): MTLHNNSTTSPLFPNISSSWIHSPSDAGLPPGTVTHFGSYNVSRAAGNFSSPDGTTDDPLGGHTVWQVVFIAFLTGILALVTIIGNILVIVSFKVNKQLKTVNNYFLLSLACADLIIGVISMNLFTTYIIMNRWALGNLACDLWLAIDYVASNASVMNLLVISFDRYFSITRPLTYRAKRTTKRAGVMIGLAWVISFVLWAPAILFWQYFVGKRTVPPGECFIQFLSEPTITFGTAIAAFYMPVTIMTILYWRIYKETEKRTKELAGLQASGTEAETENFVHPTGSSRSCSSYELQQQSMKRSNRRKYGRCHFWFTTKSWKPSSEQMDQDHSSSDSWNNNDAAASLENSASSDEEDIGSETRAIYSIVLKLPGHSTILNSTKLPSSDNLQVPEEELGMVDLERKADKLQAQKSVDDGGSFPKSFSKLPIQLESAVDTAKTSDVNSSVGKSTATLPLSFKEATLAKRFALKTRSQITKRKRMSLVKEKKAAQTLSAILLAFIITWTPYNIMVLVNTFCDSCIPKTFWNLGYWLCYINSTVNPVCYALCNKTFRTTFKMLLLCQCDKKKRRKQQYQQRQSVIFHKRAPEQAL
Briefly: Alphascreen Surefire phospho-ERK1/2 functional assay, M3. The following applies: for EC50: CHO cells stably expressing human M3, agonist 5 min, 37° C., read-out: pEC50 M3 (converted); for Emax: CHO, read-out: % Emax cf. ACh, M3. The protocol:
as §1, §2

Experiment [4] addresses T4, human muscarinic M4 receptor (Homo sapiens, UniProt P08173).
T4 construct: expressed in transfected cells
T4 sequence (P08173 1-479): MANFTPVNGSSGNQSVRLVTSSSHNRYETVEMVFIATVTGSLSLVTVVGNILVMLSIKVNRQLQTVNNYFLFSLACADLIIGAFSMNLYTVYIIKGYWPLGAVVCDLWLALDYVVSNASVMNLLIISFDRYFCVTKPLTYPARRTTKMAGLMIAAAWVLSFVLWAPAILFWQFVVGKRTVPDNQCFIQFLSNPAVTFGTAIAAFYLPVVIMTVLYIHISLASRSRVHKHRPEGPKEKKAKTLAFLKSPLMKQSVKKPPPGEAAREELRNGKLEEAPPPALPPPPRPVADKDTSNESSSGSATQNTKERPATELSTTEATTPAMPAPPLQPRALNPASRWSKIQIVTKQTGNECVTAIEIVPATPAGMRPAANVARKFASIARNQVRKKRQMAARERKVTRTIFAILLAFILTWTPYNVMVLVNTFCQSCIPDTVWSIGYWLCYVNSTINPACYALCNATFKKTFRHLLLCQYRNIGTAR
Briefly: Alphascreen Surefire phospho-ERK1/2 functional assay, M4. As to conditions: for EC50: CHO cells stably expressing human M4, agonist 5 min, 37° C., read-out: pEC50 M4 (converted); for Emax: CHO, read-out: % Emax cf. ACh, M4. The protocol: as §1, §2

One may read the Emax as the size of the effect at its maximum, as opposed to the concentration needed. Regarding `O=C1CCc2ccccc2N1CCCN1CCC(CCOC2=NOCC2)CC1` [Example 1, 1-(3-(4-(2-((4,5-dihydroisoxazol-3-yl)oxy)ethyl)piperidin-1-yl)propyl)-3,4-dihydroquinolin-2(1H)-one], the EC50 in experiment [1] was 0.0631 µM; in experiment [2], over 20 µM; in experiment [3] it was over 20 µM; in experiment [4], over 20 µM. The Emax in experiment [1] is 92%; in experiment [2], 1%; in experiment [3], 0%; in experiment [4], 19%.
For the molecule `O=C1CCON1CCCCCC1CCN(CCCN2C(=O)CCc3ccccc32)CC1` [Example 12, 2-(5-(1-(3-(2-oxo-3,4-dihydroquinolin-1(2H)-yl)propyl)piperidin-4-yl)pentyl)isoxazolidin-3-one], the EC50 in experiment [1] was 0.02 µM; in experiment [2] it was over 20 µM; in experiment [3], over 20 µM; in experiment [4] it was over 20 µM. The Emax came to 41% in experiment [1], 2% in experiment [2], 1% in experiment [3] and 5% in experiment [4].
For the molecule `O=C1CCc2ccccc2N1CCCN1C2CCC1CC(CCCOC1=NOCC1)C2` (centres unmarked) [Example 4, 1-(3-(3-(3-((4,5-dihydroisoxazol-3-yl)oxy)propyl)-8-azabicyclo[3.2.1]octan-8-yl)propyl)-3,4-dihydroquinolin-2(1H)-one], the EC50 in experiment [1] was 0.00316 µM; in experiment [2] it was over 20 µM; in experiment [3], over 20 µM; in experiment [4], over 20 µM. Further, the maximal response (Emax) came out at 71% in experiment [1], 29% in experiment [2], 0% in experiment [3] and 11% in experiment [4].
As for `O=C1CCc2ccccc2N1CCCN1[C@@H]2CC[C@H]1C[C@@H](OCCOC1=NOCC1)C2` [Example 5, 1-(3-(3-(2-((4,5-dihydroisoxazol-3-yl)oxy)ethoxy)-8-azabicyclo[3.2.1]octan-8-yl)propyl)-3,4-dihydroquinolin-2(1H)-one], the EC50 in experiment [1] is 0.00631 µM; in experiment [2], over 20 µM; in experiment [3], over 20 µM; in experiment [4] it was over 20 µM. Also, the maximal response (Emax) was 62% in experiment [1], 16% in experiment [2], 46% in experiment [3] and 19% in experiment [4].
Take `O=C1CCc2ccccc2N1CCCN1[C@@H]2CC[C@H]1CN(CCCOC1=NOCC1)C2` [Example 6, 1-(3-((1R,5S)-3-(3-((4,5-dihydroisoxazol-3-yl)oxy)propyl)-3,8-diazabicyclo[3.2.1]octan-8-yl)propyl)-3,4-dihydroquinolin-2(1H)-one]: the EC50 in experiment [1] is under 0.000631 µM; in experiment [2], over 0.2 µM; in experiment [3] it was over 0.2 µM; in experiment [4], over 20 µM. Further, the maximum response (Emax) in experiment [1] stood at 103%; in experiment [2], 6%; in experiment [3], 0%; in experiment [4], 32%.
Take `O=C1CCc2ccccc2N1CCCN1[C@@H]2CC[C@H]1CC(CCOC1=NOCC1)C2` (stereo partly drawn) [Example 3, 1-(3-((1R,5S)-3-(2-((4,5-dihydroisoxazol-3-yl)oxy)ethyl)-8-azabicyclo[3.2.1]octan-8-yl)propyl)-3,4-dihydroquinolin-2(1H)-one]: in experiment [1], the EC50 was 0.1 µM and the Emax worked out at 37%. In experiment [4], the EC50 is over 20 µM and the Emax stood at 53%.
`O=C1CCON1CCC1CCN(CCCN2C(=O)CCc3ccccc32)CC1` [Example 10, 2-(2-(1-(3-(2-oxo-3,4-dihydroquinolin-1(2H)-yl)propyl)piperidin-4-yl)ethyl)isoxazolidin-3-one]: in experiment [1], the EC50 is 0.794 µM and the maximum response (Emax) was found to be 73%. Moreover, in experiment [4], the EC50 was over 20 µM and the Emax came to 13%.
For `c1ccc2c(c1)CCCN2CCCN1C2CCC1CC(CCCOC1=NOCC1)C2` (centres unmarked) [Example 9, 3-(3-(8-(3-(3,4-dihydroquinolin-1(2H)-yl)propyl)-8-azabicyclo[3.2.1]octan-3-yl)propoxy)-4,5-dihydroisoxazole], the EC50 in experiment [1] was 0.0251 µM; in experiment [2] it was over 20 µM; in experiment [3] it was over 20 µM; in experiment [4], over 20 µM. Further, the Emax is 40% in experiment [1], 28% in experiment [2], 21% in experiment [3] and 16% in experiment [4].
Consider `O=C1CCON1CCCCC1CCN(CCCN2C(=O)CCc3ccccc32)CC1` [Example 11, 2-(4-(1-(3-(2-oxo-3,4-dihydroquinolin-1(2H)-yl)propyl)piperidin-4-yl)butyl)isoxazolidin-3-one], for which the EC50 in experiment [1] was 0.01 µM; in experiment [2], over 20 µM; in experiment [3] it was over 20 µM; in experiment [4] it was over 20 µM. Also, the Emax in experiment [1] stood at 92%; in experiment [2], 4%; in experiment [3] it was 7%; in experiment [4] it was 10%.
As for `O=C1COc2cc(F)ccc2N1CCCN1CCC(CCCCOC2=NOCC2)CC1` [Example 8, 4-(3-(4-(4-((4,5-dihydroisoxazol-3-yl)oxy)butyl)piperidin-1-yl)propyl)-7-fluoro-2H-benzo[b][1,4]oxazin-3(4H)-one], the EC50 in experiment [1] is 0.01 µM; in experiment [2] it was over 20 µM; in experiment [3], over 20 µM; in experiment [4], 0.0251 µM. Further, the Emax was found to be 102% in experiment [1], 4% in experiment [2], 3% in experiment [3] and 25% in experiment [4].
As for `O=C1CCON1CCCC1C[C@@H]2CC[C@@H](C1)N2CCCN1C(=O)CCc2ccccc21` (stereo partly drawn) [Example 13, 2-(3-((1S,5S)-8-(3-(2-oxo-3,4-dihydroquinolin-1(2H)-yl)propyl)-8-azabicyclo[3.2.1]octan-3-yl)propyl)isoxazolidin-3-one], the EC50 is 0.1 µM in experiment [1], over 20 µM in experiment [2], over 20 µM in experiment [3] and over 20 µM in experiment [4]. In addition, the Emax in experiment [1] came out at 62%; in experiment [2], 9%; in experiment [3], 8%; in experiment [4], 12%.
On to `O=C1COc2cc(F)ccc2N1CCCN1CCC(CCOC2=NOCC2)CC1` [Example 7, 4-(3-(4-(2-((4,5-dihydroisoxazol-3-yl)oxy)ethyl)piperidin-1-yl)propyl)-7-fluoro-2H-benzo[b][1,4]oxazin-3(4H)-one], for which, in experiment [1], the EC50 was 0.251 µM and the Emax was found to be 62%. In experiment [4], the EC50 was over 20 µM and the Emax was determined as 8%.
As to `O=C1CCc2ccccc2N1CCCN1CCC(CCCCOC2=NOCC2)CC1` [Example 2, 1-(3-(4-(4-((4,5-dihydroisoxazol-3-yl)oxy)butyl)piperidin-1-yl)propyl)-3,4-dihydroquinolin-2(1H)-one], the EC50 in experiment [1] is 0.00316 µM; in experiment [2] it was over 20 µM; in experiment [3] it was over 20 µM; in experiment [4], over 20 µM. The Emax in experiment [1] came out at 98%; in experiment [2], 3%; in experiment [3] it was 7%; in experiment [4], 10%.
